Counter-ions that a name gives are not always drawn.
Test system: 4 PI3K isoforms (Human recombinant GST-PI3K)
Experiment: PI3K scintillation proximity assay, best IC50 obtained with the four isoforms (alpha, beta, delta, gamma)
Type: biochemical
Settings: best IC50 obtained with the four isoforms of PI3K; read-out: Best potency measured on the 4 PI3K isoforms

SMILES | IC50
COCCN1CCC[C@H](n2nc(C(=O)N3CCOCC3)c3c2-c2cccc(C)c2S(=O)(=O)C3)C1 (single isomer, unassigned) [Example 467, 1-[1-(2-methoxyethyl)piperidin-3-yl]-6-methyl-3-(morpholin-4-ylcarbonyl)-1,4-dihydrothiochromeno[4,3-c]pyrazole 5,5-dioxide] | 0.096 µM
O=C(c1nn(C2CCCCCC2)c2c1CS(=O)(=O)c1ccccc1-2)N1CCOCC1 [Example 78, 1-Cycloheptyl-3-(morpholin-4-ylcarbonyl)-1,4-dihydrothiochromeno[4,3-c]pyrazole 5,5-dioxide] | 0.469 µM
O=C(c1nn(C2CCN(CCN3CC[C@H](F)C3)C2)c2c1CS(=O)(=O)c1ccccc1-2)N1CCOCC1 (stereo partly drawn) [Example 310, 1-(1-{2-[(3S)-3-Fluoropyrrolidin-1-yl]ethyl}pyrrolidin-3-yl)-3-(morpholin-4-ylcarbonyl)-1,4-dihydrothiochromeno[4,3-c]pyrazole 5,5-dioxide] | 0.192 µM
CN(C)CC(C)(C)c1ccc(-n2nc(C(=O)N3CCOCC3)c3c2-c2ccccc2S(=O)(=O)C3)cc1 [Example 458, N,N,2-Trimethyl-2-{4-[3-(morpholin-4-ylcarbonyl)-5,5-dioxidothiochromeno[4,3-c]pyrazol-1(4H)-yl]phenyl}propan-1-amine hydrochloride] | 0.159 µM
O=C(c1nn(C2CCOCC2)c2c1CS(=O)(=O)c1c(Cl)cccc1-2)N1CCOCC1 [Example 264, 6-Chloro-3-(morpholin-4-ylcarbonyl)-1-(tetrahydro-2H-pyran-4-yl)-1,4-dihydrothiochromeno[4,3-c]pyrazole 5,5-dioxide] | 0.673 µM
O=C(c1nn([C@@H]2CCCN(CCC3CCOCC3)C2)c2c1CS(=O)(=O)c1ncccc1-2)N1CCOCC1 (single isomer, unassigned) [Example 423, 3-(morpholin-4-ylcarbonyl)-1-{1-[2-(tetrahydro-2H-pyran-4-yl)ethyl]piperidin-3-yl}-1,4-dihydropyrazolo[3′,4′:4,5]thiopyrano[2,3-b]pyridine 5,5-dioxide] | 0.099 µM
O=C(c1nn(-c2cccc(Cn3ccnc3)c2)c2c1CS(=O)(=O)c1ccccc1-2)N1CCOCC1 [Example 291, 1-[3-(1H-imidazol-1-ylmethyl)phenyl]-3-(morpholin-4-ylcarbonyl)-1,4-dihydrothiochromeno[4,3-c]pyrazole 5,5-dioxide] | 0.673 µM
CC(=O)N1CCC(Cn2nc(C(=O)N3CCOCC3)c3c2-c2ccccc2S(=O)(=O)C3)CC1 [Example 191, 1-[(1-Acetylpiperidin-4-yl)methyl]-3-(morpholin-4-ylcarbonyl)-1,4-dihydrothiochromeno[4,3-c]pyrazole 5,5-dioxide] | 2.83 µM
O=C(c1nn([C@H]2CCCN(CC3CCOCC3)C2)c2c1CS(=O)(=O)c1ccccc1-2)N1CCOCC1 (stereo in doubt) [Example 361, 3-(morpholin-4-ylcarbonyl)-1-[1-(tetrahydro-2H-pyran-4-ylmethyl)piperidin-3-yl]-1,4-dihydrothiochromeno[4,3-c]pyrazole 5,5-dioxide] | 0.025 µM
COCCOCCN1CCCC(n2nc(C(=O)N3CCOCC3)c3c2-c2ccccc2S(=O)(=O)C3)C1 (centres unmarked) [Example 225, 1-{1-[2-(2-Methoxyethoxy)ethyl]piperidin-3-yl}-3-(morpholin-4-ylcarbonyl)-1,4-dihydrothiochromeno[4,3-c]pyrazole 5,5-dioxide] | 0.635 µM
COCCCn1nc(C(=O)N2CCOCC2)c2c1-c1ccccc1S(=O)(=O)C2 [Example 44, 1-(3-methoxypropyl)-3-(morpholin-4-ylcarbonyl)-1,4-dihydrothiochromeno[4,3-c]pyrazole 5,5-dioxide] | 0.907 µM
CS(=O)(=O)N1CCC(n2nc(C(=O)N3CCOCC3)c3c2-c2ccccc2S(=O)(=O)C3)CC1 [Example 123, 1-[1-(Methylsulfonyl)piperidin-4-yl]-3-(morpholin-4-ylcarbonyl)-1,4-dihydrothiochromeno[4,3-c]pyrazole 5,5-dioxide] | 2.1 µM
COCCN1CCC[C@H](n2nc(C(=O)N3CCOCC3)c3c2-c2ccc(OC)cc2S(=O)(=O)C3)C1 (single isomer, unassigned) [Example 394, 7-methoxy-1-[1-(2-methoxyethyl)piperidin-3-yl]-3-(morpholin-4-ylcarbonyl)-1,4-dihydrothiochromeno[4,3-c]pyrazole 5,5-dioxide] | 0.093 µM

Next, values leading:

IC50 | SMILES
17.9 µM | O=C(c1nn(-c2ccccc2)c2c1CS(=O)(=O)c1c(-c3ccccc3)cccc1-2)N1CCOCC1 [Example 323]
3.73 µM | CN(C)C(=O)c1ccc2c(c1)-c1c(c(C(=O)N3CCOCC3)nn1-c1ccccc1)CS2(=O)=O [Example 115, N,N-Dimethyl-3-(morpholin-4-ylcarbonyl)-1-phenyl-1,4-dihydrothiochromeno[4,3-c]pyrazole-8-carboxamide 5,5-dioxide]
2.93 µM | O=C(c1nn([C@@H]2CCCN(C3CCCOC3)C2)c2c1CS(=O)(=O)c1ncccc1-2)N1CCOCC1 (single isomer, unassigned) [Example 379, 3-(morpholin-4-ylcarbonyl)-1-[1-(tetrahydro-2H-pyran-3-yl)piperidin-3-yl]-1,4-dihydropyrazolo[3′,4′:4,5]thiopyrano[2,3-b]pyridine 5,5-dioxide]
2.69 µM | O=C(c1nn(-c2cccc(Nc3ccccc3)c2)c2c1CS(=O)(=O)c1ccccc1-2)N1CCOCC1 [Example 166, {3-[3-(Morpholin-4-ylcarbonyl)-5,5-dioxidothiochromeno[4,3-c]pyrazol-1 (4H)-yl]phenyl}phenylamine]
2.56 µM | CS(=O)(=O)c1cccc(-n2nc(C(=O)N3CCOCC3)c3c2-c2ccccc2S(=O)(=O)C3)c1 [Example 138, 1-[3-(Methylsulfonyl)phenyl]-3-(morpholin-4-ylcarbonyl)-1,4-dihydrothiochromeno[4,3-c]pyrazole 5,5-dioxide]
1.06 µM | O=C(c1nn([C@H]2CCCNC2)c2c1CS(=O)(=O)c1ccccc1-2)N1CCOCC1 (single isomer, unassigned) [Example 359]
0.895 µM | O=C(c1nn(-c2ccc(Cl)cc2)c2c1CS(=O)(=O)c1ccccc1-2)N1CCOCC1 [Example 29, 1-(4-chlorophenyl)-3-(morpholin-4-ylcarbonyl)-1,4-dihydrothiochromeno[4,3-c]pyrazole 5,5-dioxide]
0.101 µM | CC1COCCN1CCN1CCC[C@H](n2nc(C(=O)N3CCOCC3)c3c2-c2ccccc2S(=O)(=O)C3)C1 (single isomer, unassigned) [Example 377, 1-{1-[2-(3-methylmorpholin-4-yl)ethyl]piperidin-3-yl}-3-(morpholin-4-ylcarbonyl)-1,4-dihydrothiochromeno[4,3-c]pyrazole 5,5-dioxide]
0.092 µM | O=C(c1nn([C@H]2CCN(CCC3CCOCC3)C2)c2c1CS(=O)(=O)c1c(F)cccc1-2)N1CCOCC1 (single isomer, unassigned) [Example 354, 6-fluoro-3-(morpholin-4-ylcarbonyl)-1-{1-[2-(tetrahydro-2H-pyran-4-yl)ethyl]pyrrolidin-3-yl}-1,4-dihydrothiochromeno[4,3-c]pyrazole 5,5-dioxide hydrochloride salt]

Same assay, conditions: inhibition at 20 μM

SMILES | Best potency measured on the 4 PI3K isoforms, % inh @20 μM
O=C(c1nn(-c2ccccc2)c2c1CS(=O)(=O)c1cc(CN3CCOCC3)ccc1-2)N1CCOCC1 [Example 329] | 23% inh @20 μM
